This experiment concerns the target T1, PD-1/PD-L1 (Homo sapiens, UniProt Q9NZQ7).
T1 construct: TVMV protease site linker (C); made in house; host or cells: HEK293T cells
The experiment is described as follows: PD-1/PD-L1 Homogenous Time-Resolved Fluorescence (HTRF) binding assay. The note with it: PD-L1-His 10 nM, PD-1-Ig 20 nM; soluble extracellular domains. An excerpt: The ability of the compounds of formula (I) to bind to PD-L1 was investigated using a PD-1/PD-L1 Homogenous Time-Resolved Fluorescence (HTRF) binding assay.
The interaction of PD-1 and PD-L1 can be assessed using soluble, purified preparations of the extracellular domains of the two proteins. The PD-1 and PD-L1 protein extracellular domains were expressed as fusion proteins with detection tags, for PD-1, the tag was the Fc portion of Immunoglobulin (PD-1-Ig) and for PD-L1 it was the 6 histidine motif (PD-L1-His). All binding studies were performed in an HTRF assay buffer consisting of dPBS supplemented with 0.1% […] bovine serum albumin and 0.05% (v/v) Tween-20. For the h/PD-L1-His binding assay, inhibitors were pre-incubated with PD-L1-His (10 nM final) for 15 m in 4 μl of assay buffer, followed by addition of PD-1-Ig (20 nM final) in 1 μl of assay buffer and further incubation for 15 m. HTRF detection was achieved using europium crypate-labeled anti-Ig (1 nM final) and allophycocyanin (APC) labeled anti-His (20 nM final). Antibodies were diluted in HTRF detection buffer and 5 μl was dispensed on top of the binding reaction. The reaction mixture was allowed to equilibrate for 30 minutes and the resulting signal (665 nm/620 nm ratio) was obtained using an EnVision fluorometer. Additional binding assays were established between the human proteins PD-1-Ig/PD-L2-His (20 & 5 nM, respectively) and CD80-His/PD-L1-Ig (100 & 10 nM, respectively).
Recombinant Proteins: Human PD-1 (25-167) with a C-terminal human Fc domain of immunoglobulin G (Ig) epitope tag [hPD-1 (25-167)-3S-IG] and human PD-L1 (18-239) with a C-terminal His epitope tag [hPD-L1(18-239)-TVMV-His] were expressed in HEK293T cells and purified sequentially by ProteinA affinity chromatography and size exclusion chromatography. Human PD-L2-His and CD80-His was obtained through commercial sources.
Table 1 lists the IC50 values for representative examples of this disclosure measured in the PD-1/PD-L1 Homogenous Time-Resolved Fluorescence (HTRF) binding assay.
A general note: TR-FRET usually uses a lanthanide donor and a delayed reading to cut background.

Each structure is given as a SMILES string. *1 amine or outer side, *2 acyl side, *3 side chain or, on linkers, in order; H or OH if unused. Where a SMILES comes first, the peptide text is derived from it. Bridges are numbered along the chain shown (N, C = ends). [ ]: non-standard residue; d: D form. The star is where a group is joined. Trp(1-CH2COOH) = N[C@@H](Cc1cn(CC(=O)O)c2ccccc12)C(=O)O; X6 = CCOC(=O)Cn1cc(C[C@H](N[*:1])C(=O)[*:2])c2ccccc21; X3 = CCOC(=O)c1ccc(Nc2c(*)c(=O)c2=O)cc1; X8 = O=C(O)c1ccc(Nc2c(*)c(=O)c2=O)cc1; X1 = O=c1c(Nc2c(Cl)cccc2Cl)c(*)c1=O; Hyp = O=C(O)[C@@H]1C[C@@H](O)CN1; NMeNle = CCCC[C@H](NC)C(=O)O; X2 = CC(C)Oc1c(*)c(=O)c1=O; X5 = CN(C)c1c(*)c(=O)c1=O; NMeA = CN[C@@H](C)C(=O)O; Orn = NCCC[C@H](N)C(=O)O; X7 = CCOc1c(*)c(=O)c1=O; Dap = NC[C@H](N)C(=O)O; X4 = COc1c(*)c(=O)c1=O

What is called IC50 is the point on the concentration scale where inhibition reaches its midpoint. Read a low IC50 as higher potency.

T1 sequence (Q9NZQ7 18-239): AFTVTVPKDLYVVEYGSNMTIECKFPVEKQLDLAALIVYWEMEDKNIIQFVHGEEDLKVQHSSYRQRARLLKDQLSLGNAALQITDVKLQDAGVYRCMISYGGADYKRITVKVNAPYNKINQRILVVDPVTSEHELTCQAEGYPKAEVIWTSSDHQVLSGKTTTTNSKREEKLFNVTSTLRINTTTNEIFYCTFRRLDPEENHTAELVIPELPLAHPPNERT

The compound `CCCC[C@H]1C(=O)N(C)[C@@H](CCCC)C(=O)N[C@@H](CC(C)C)C(=O)N[C@H](C(=O)NCC(N)=O)CSCC(=O)N[C@@H](Cc2ccc(O)cc2)C(=O)N(C)[C@@H](C)C(=O)N[C@@H](CC(N)=O)C(=O)N2CCC[C@H]2C(=O)N[C@@H](CNc2c(OC)c(=O)c2=O)C(=O)N[C@@H](CC(C)C)C(=O)N2C[C@H](O)C[C@H]2C(=O)N[C@@H](Cc2c[nH]c3ccccc23)C(=O)N[C@@H](CCCNc2c(OC)c(=O)c2=O)C(=O)N[C@@H](Cc2cn(CC(=O)O)c3ccccc23)C(=O)N1C` [Compound 1001] ({CH2CO}-Y[NMeA]NP[Dap](X4)L[Hyp]W[Orn](X4)[Trp(1-CH2COOH)][NMeNle][NMeNle]LCG-NH2; thioether N-14) yielded an IC50 of 4.2 nM. In other words, the single-digit nanomolar range. For `CCCC[C@H]1C(=O)N(C)[C@@H](CCCC)C(=O)N[C@@H](CC(C)C)C(=O)N[C@H](C(=O)NCC(N)=O)CSCC(=O)N[C@@H](Cc2ccc(O)cc2)C(=O)N(C)[C@@H](C)C(=O)N[C@@H](CC(N)=O)C(=O)N2CCC[C@H]2C(=O)N[C@@H](CNc2c(OC)c(=O)c2=O)C(=O)N[C@@H](CC(C)C)C(=O)N2C[C@H](O)C[C@H]2C(=O)N[C@@H](Cc2c[nH]c3ccccc23)C(=O)N[C@@H](CCCN)C(=O)N[C@@H](Cc2cn(CC(=O)O)c3ccccc23)C(=O)N1C` [Compound 1002] ({CH2CO}-Y[NMeA]NP[Dap](X4)L[Hyp]W[Orn][Trp(1-CH2COOH)][NMeNle][NMeNle]LCG-NH2; thioether N-14), the IC50 was found to be 3.6 nM.

As for `CCCC[C@H]1C(=O)N(C)[C@@H](CCCC)C(=O)N[C@@H](CC(C)C)C(=O)N[C@H](C(=O)NCC(N)=O)CSCC(=O)N[C@@H](Cc2ccc(O)cc2)C(=O)N(C)[C@@H](C)C(=O)N[C@@H](CC(N)=O)C(=O)N2CCC[C@H]2C(=O)N[C@@H](CNc2c(OCC)c(=O)c2=O)C(=O)N[C@@H](CC(C)C)C(=O)N2C[C@H](O)C[C@H]2C(=O)N[C@@H](Cc2c[nH]c3ccccc23)C(=O)N[C@@H](CCCNc2c(OCC)c(=O)c2=O)C(=O)N[C@@H](Cc2cn(CC(=O)OCC)c3ccccc23)C(=O)N1C` [Compound 1003] ({CH2CO}-Y[NMeA]NP[Dap](X7)L[Hyp]W[Orn](X7)[X6][NMeNle][NMeNle]LCG-NH2; thioether N-14), the IC50 came to 16 nM. Next, `CCCC[C@H]1C(=O)N(C)[C@@H](CCCC)C(=O)N[C@@H](CC(C)C)C(=O)N[C@H](C(=O)NCC(N)=O)CSCC(=O)N[C@@H](Cc2ccc(O)cc2)C(=O)N(C)[C@@H](C)C(=O)N[C@@H](CC(N)=O)C(=O)N2CCC[C@H]2C(=O)N[C@@H](CNc2c(N(C)C)c(=O)c2=O)C(=O)N[C@@H](CC(C)C)C(=O)N2C[C@H](O)C[C@H]2C(=O)N[C@@H](Cc2c[nH]c3ccccc23)C(=O)N[C@@H](CCCNc2c(N(C)C)c(=O)c2=O)C(=O)N[C@@H](Cc2cn(CC(=O)O)c3ccccc23)C(=O)N1C` [Compound 1004] ({CH2CO}-Y[NMeA]NP[Dap](X5)L[Hyp]W[Orn](X5)[Trp(1-CH2COOH)][NMeNle][NMeNle]LCG-NH2; thioether N-14): 4.3 nM; `CCCC[C@H]1C(=O)N(C)[C@@H](CCCC)C(=O)N[C@@H](CC(C)C)C(=O)N[C@H](C(=O)NCC(N)=O)CSCC(=O)N[C@@H](Cc2ccc(O)cc2)C(=O)N(C)[C@@H](C)C(=O)N[C@@H](CC(N)=O)C(=O)N2CCC[C@H]2C(=O)N[C@@H](CNc2c(Nc3ccc(C(=O)OCC)cc3)c(=O)c2=O)C(=O)N[C@@H](CC(C)C)C(=O)N2C[C@H](O)C[C@H]2C(=O)N[C@@H](Cc2c[nH]c3ccccc23)C(=O)N[C@@H](CCCNc2c(Nc3ccc(C(=O)OCC)cc3)c(=O)c2=O)C(=O)N[C@@H](Cc2cn(CC(=O)O)c3ccccc23)C(=O)N1C` [Compound 1005] ({CH2CO}-Y[NMeA]NP[Dap](X3)L[Hyp]W[Orn](X3)[Trp(1-CH2COOH)][NMeNle][NMeNle]LCG-NH2; thioether N-14): 1.4 nM; `CCCC[C@H]1C(=O)N(C)[C@@H](CCCC)C(=O)N[C@@H](CC(C)C)C(=O)N[C@H](C(=O)NCC(N)=O)CSCC(=O)N[C@@H](Cc2ccc(O)cc2)C(=O)N(C)[C@@H](C)C(=O)N[C@@H](CC(N)=O)C(=O)N2CCC[C@H]2C(=O)N[C@@H](CNc2c(Nc3c(Cl)cccc3Cl)c(=O)c2=O)C(=O)N[C@@H](CC(C)C)C(=O)N2C[C@H](O)C[C@H]2C(=O)N[C@@H](Cc2c[nH]c3ccccc23)C(=O)N[C@@H](CCCNc2c(Nc3c(Cl)cccc3Cl)c(=O)c2=O)C(=O)N[C@@H](Cc2cn(CC(=O)O)c3ccccc23)C(=O)N1C` [Compound 1006] ({CH2CO}-Y[NMeA]NP[Dap](X1)L[Hyp]W[Orn](X1)[Trp(1-CH2COOH)][NMeNle][NMeNle]LCG-NH2; thioether N-14): 2.8 nM. In the case of `CCCC[C@H]1C(=O)N(C)[C@@H](CCCC)C(=O)N[C@@H](CC(C)C)C(=O)N[C@H](C(=O)NCC(N)=O)CSCC(=O)N[C@@H](Cc2ccc(O)cc2)C(=O)N(C)[C@@H](C)C(=O)N[C@@H](CC(N)=O)C(=O)N2CCC[C@H]2C(=O)N[C@@H](CNc2c(OC(C)C)c(=O)c2=O)C(=O)N[C@@H](CC(C)C)C(=O)N2C[C@H](O)C[C@H]2C(=O)N[C@@H](Cc2c[nH]c3ccccc23)C(=O)N[C@@H](CCCNc2c(OC(C)C)c(=O)c2=O)C(=O)N[C@@H](Cc2cn(CC(=O)O)c3ccccc23)C(=O)N1C` [Compound 1007] ({CH2CO}-Y[NMeA]NP[Dap](X2)L[Hyp]W[Orn](X2)[Trp(1-CH2COOH)][NMeNle][NMeNle]LCG-NH2; thioether N-14), the IC50 is 1.6 nM. As for `CCCC[C@H]1C(=O)N(C)[C@@H](CCCC)C(=O)N[C@@H](CC(C)C)C(=O)N[C@H](C(=O)NCC(N)=O)CSCC(=O)N[C@@H](Cc2ccc(O)cc2)C(=O)N(C)[C@@H](C)C(=O)N[C@@H](CC(N)=O)C(=O)N2CCC[C@H]2C(=O)N[C@@H](CNc2c(Nc3ccc(C(=O)O)cc3)c(=O)c2=O)C(=O)N[C@@H](CC(C)C)C(=O)N2C[C@H](O)C[C@H]2C(=O)N[C@@H](Cc2c[nH]c3ccccc23)C(=O)N[C@@H](CCCNc2c(Nc3ccc(C(=O)O)cc3)c(=O)c2=O)C(=O)N[C@@H](Cc2cn(CC(=O)O)c3ccccc23)C(=O)N1C` [Compound 1009] ({CH2CO}-Y[NMeA]NP[Dap](X8)L[Hyp]W[Orn](X8)[Trp(1-CH2COOH)][NMeNle][NMeNle]LCG-NH2; thioether N-14), the figure is 2.9 nM.

Values taken from US12403174B2, “Immunomodulators” (Bristol-Myers Squibb Company, priority 2020, dated 2025).
